Results published in US20080286771A1, “Method of Predicting the Responsiveness of a Tumour to Erbb Receptor Drugs” (priority 2004, published 2008).
Read-outs that look alike come from different tables or passages of the source.

Legend:
advanced NSCLC [1] = conditions: advanced NSCLC previously treated with chemotherapy, cited from earlier work
[2] = test system: Lovo colon tumour cell line xenograft; assay: Lovo xenograft response to gefitinib; type: in vivo; conditions: Lovo xenograft in nude mice
Excerpt: (§1) This definition is based on the response observed when the tumour cell line is implanted into nude mice and grown as a xenograft. This definition has been used for all the pre-clinical studies described herein. Initially a small panel of six human tumour cell lines were assembled, three which are sensitive to gefitinib and three which are resistant to gefitinib in the xenograft setting defined above. The sensitive cell lines were; • 1.

KB cell line xenograft = assay: KB xenograft response to gefitinib; type: in vivo; conditions: KB xenograft in nude mice
Excerpt: as §1

[3] = test system: HT29 colon tumour cell line xenograft; assay: HT29 xenograft response to gefitinib; type: in vivo; conditions: HT29 xenograft in nude mice
Excerpt: as §1

[4] = test system: MKN45 gastric tumour cell line xenograft; assay: MKN45 xenograft response to gefitinib; type: in vivo; conditions: MKN45 xenograft in athymic mice, oral dosing once daily, mean tumour volume
Excerpt: as §1

[5] = test system: Calu 6 lung tumour cell line xenograft; assay: Calu 6 xenograft response to gefitinib; type: in vivo; conditions: Calu 6 xenograft in nude mice
Excerpt: as §1

[6] = test system: PC3 prostate tumour cell line xenograft; assay: PC3 xenograft response to gefitinib; type: in vivo; conditions: PC3 xenograft in nude mice
Excerpt: as §1

[7] = test system: BT474 breast tumour cell line xenograft; assay: BT474 xenograft response to gefitinib; type: in vivo, nude mice
Excerpt: (§2) This definition is based on the response observed when the tumour cell line is implanted into nude mice and grown as a xenograft. This definition has been used for all the pre-clinical studies described herein. […] BT474 (ATCC No. HTB-20)-breast tumour cell line • b. DU145 (ATCC No. HTB-81)-[…] tumour cell line • c. MCF7 (ATCC No. HTB-22, sourced from ICRP (now CR-UK), London), -breast tumour cell line • d. GEO colon tumour cell line.

[8] = test system: DU145 tumour cell line xenograft; assay: DU145 xenograft response to gefitinib; type: in vivo, nude mice
Excerpt: as §2

[9] = test system: MCF7 breast tumour cell line xenograft; assay: MCF7 xenograft response to gefitinib; type: in vivo, nude mice
Excerpt: as §2

[10] = test system: GEO colon tumour cell line xenograft; assay: GEO xenograft response to gefitinib; type: in vivo, nude mice
Excerpt: as §2

[11] = test system: A549 lung tumour cell line xenograft; assay: A549 xenograft response to gefitinib; type: in vivo; conditions: A549 xenograft in athymic mice, oral dosing once daily, mean tumour volume
Excerpt: as §2

[12] = test system: A431 epidermoid cell line xenograft; assay: A431 xenograft response to gefitinib; type: in vivo, nude mice
Excerpt: as §2

[13] = test system: HX147 lung tumour cell line xenograft; assay: HX147 xenograft response to gefitinib; type: in vivo, nude mice
Excerpt: (§3) This definition is based on the response observed when the tumour cell line is implanted into nude mice and grown as a xenograft. This definition has been used for all the pre-clinical studies described herein.

[14] = test system: RT112 bladder tumour cell line xenograft; assay: RT112 xenograft response to gefitinib; type: in vivo, nude mice
Excerpt: as §3

[15] = test system: MiaPac2 pancreatic tumour cell line xenograft; assay: MiaPac2 xenograft response to gefitinib; type: in vivo, nude mice
Excerpt: as §3

[16] = test system: MDAMB231 breast tumour cell line xenograft; assay: MDAMB231 xenograft response to gefitinib; type: in vivo, nude mice
Excerpt: as §3

[17] = test system: SW620 colon tumour cell line xenograft; assay: SW620 xenograft response to gefitinib; type: in vivo, nude mice
Excerpt: as §3

advanced NSCLC [18] = conditions: cited from earlier work; for Objective response rate (Complete Response+Partial Response): advanced NSCLC previously treated with chemotherapy

C#Cc1cccc(Nc2ncnc3cc(OCCOC)c(OCCOC)cc23)c1 [erlotinib]
prolongs survival (advanced NSCLC [1]; across the population): ~2 months
reduction in risk of death at one year (advanced NSCLC [1]): 41%

COc1cc2ncnc(Nc3ccc(F)c(Cl)c3)c2cc1OCCCN1CCOCC1 [gefitinib, N-(3-chloro-4-fluorophenyl)-7-methoxy-6-(3-morpholinopropoxy)quinazolin-4-amine]
response when grown as a xenograft (sensitive/resistant) [2]: sensitive
response when grown as a xenograft (sensitive/resistant) (KB cell line xenograft): sensitive
response when grown as a xenograft (sensitive/resistant) [3]: sensitive
response when grown as a xenograft (sensitive/resistant) [4]: resistant
response when grown as a xenograft (sensitive/resistant) [5]: resistant
response when grown as a xenograft (sensitive/resistant) [6]: resistant
response when grown as a xenograft (sensitive/resistant) [7]: sensitive
response when grown as a xenograft (sensitive/resistant) [8]: sensitive
response when grown as a xenograft (sensitive/resistant) [9]: sensitive
response when grown as a xenograft (sensitive/resistant) [10]: sensitive
response when grown as a xenograft (sensitive/resistant) [11]: sensitive
response when grown as a xenograft (sensitive/resistant) [12]: sensitive
response when grown as a xenograft (sensitive/resistant) [13]: resistant
response when grown as a xenograft (sensitive/resistant) [14]: resistant
response when grown as a xenograft (sensitive/resistant) [15]: resistant
response when grown as a xenograft (sensitive/resistant) [16]: resistant
response when grown as a xenograft (sensitive/resistant) [17]: resistant
Objective response rate (Complete Response+Partial Response) (advanced NSCLC [18]; IDEAL 1 trial, predominantly Japanese): 18.4%
Objective response rate (Complete Response+Partial Response) (advanced NSCLC [18]; IDEAL 2 trial, predominantly European-derived population): 11.8%
patients overall benefit (objective response, stable disease and/or symptom improvement) (advanced NSCLC [18]; IDEAL trials): approximately 50%
toxicity (advanced NSCLC [18]; single agent, advanced NSCLC patients): limited toxicity
